The values that follow come from PubChem BioAssay (NCI).

The structures appear in SMILES notation. Where “and” joins values, the source holds several entries; their conditions need not be identical. Equal values may be shown once.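 Values below derive from 48-hour exposures of cells grown in 96-well plates, with endpoints linearly interpolated between the two concentrations bracketing the appropriate inhibition level. Abbreviation: GI50, concentration required for 50% inhibition of growth. The concentration for full growth arrest is given as TGI.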

Among the test systems are BT-549 breast; DU-145 prostate; HCC-2998 colon; MALME-3M melanoma; NCI-H23 lung; NCI-H522 lung; OVCAR-4 ovarian; SF-295 CNS; UACC-257 melanoma; KM12 colon.
Holding throughout (assay): NCI-60 cell line screen, 48 h

Take `COc1ccc(CN2c3ccccc3Sc3ccccc32)c(C(F)(F)F)c1`: the GI50 in the test on BT-549 breast was 3.12 µM; with DU-145 prostate, 2.08 µM; in the test on HCC-2998 colon it was 2 µM; in the test with MALME-3M melanoma, 21 µM; with NCI-H23 lung, 1.03 µM; with NCI-H522 lung, 0.314 µM. Also, the GI50 was 2.17 µM in the test on OVCAR-4 ovarian and 0.32 µM in the test on SF-295 CNS. Further, the TGI with BT-549 breast is 31.9 µM; in the test with DU-145 prostate it was above 100 µM; with HCC-2998 colon it was 10.3 µM; in the test with MALME-3M melanoma, above 100 µM; in the test on NCI-H23 lung it was 93.4 µM; in the test on NCI-H522 lung, 2.84 µM. Besides, the results for the TGI with OVCAR-4 ovarian and in the test on SF-295 CNS were above 100 µM and 2.67 µM, respectively.

With `COc1ccc(Cc2coc3ccccc3c2=O)cc1OC`, the TGI in the test with BT-549 breast, in the test on DU-145 prostate, in the test with MALME-3M melanoma, in the test on NCI-H23 lung, in the test on NCI-H522 lung and in the test with OVCAR-4 ovarian was above 100 µM in each case. In addition, the TGI in the test with SF-295 CNS and in the test on UACC-257 melanoma was above 100 µM throughout.

As to `COc1ccc2c(c1)nc(C(=O)c1ccco1)c(C(F)(F)F)[n+]2[O-]`, the GI50 with BT-549 breast, in the test on DU-145 prostate, in the test on HCC-2998 colon, in the test on KM12 colon, with MALME-3M melanoma and in the test with NCI-H23 lung was above 100 µM in each case. For the same compound, the GI50 in the test with NCI-H522 lung, in the test with OVCAR-4 ovarian and in the test on SF-295 CNS was above 100 µM each time. Further, the TGI in the test with BT-549 breast, with DU-145 prostate, in the test with HCC-2998 colon, in the test on KM12 colon, in the test with MALME-3M melanoma and in the test on NCI-H23 lung was above 100 µM throughout. Besides, the TGI in the test with NCI-H522 lung, in the test with OVCAR-4 ovarian and in the test with SF-295 CNS was above 100 µM each time.

Take `CC1=C(c2ccccc2)C(O)(c2ccccc2)C(C)C1=O` (stereo not drawn): the GI50 in the test on BT-549 breast is 14.6 µM; in the test with DU-145 prostate it was 27.2 µM; with KM12 colon it was 7.52 µM; in the test with MALME-3M melanoma, 27.7 µM; in the test with NCI-H23 lung, 10.1 µM; in the test on OVCAR-4 ovarian, 24.3 µM. Also, the results for the GI50 in the test with SF-295 CNS and in the test with UACC-257 melanoma were 12.7 µM and 55 µM, respectively. For the same compound, the TGI was 55.4 µM with BT-549 breast; above 100 µM in the test on DU-145 prostate; above 100 µM with KM12 colon; above 100 µM in the test with MALME-3M melanoma; 46.4 µM in the test with NCI-H23 lung; above 100 µM with OVCAR-4 ovarian. The TGI in the test on SF-295 CNS was 62.6 µM; in the test on UACC-257 melanoma, above 100 µM.

In the case of `CN(C)c1ccc2oc(=O)c3ccccc3c2c1`, the TGI was above 100 µM with BT-549 breast; above 100 µM with DU-145 prostate; above 100 µM with HCC-2998 colon; above 100 µM in the test with MALME-3M melanoma; 64.2 µM with NCI-H23 lung; above 100 µM with NCI-H522 lung. Further, the TGI in the test on OVCAR-4 ovarian, in the test on SF-295 CNS and in the test with UACC-257 melanoma was above 100 µM throughout.

As for `O=C(CCCN1CCC(O)(c2ccc(Cl)cc2)CC1)c1ccc(F)cc1`, the TGI in the test on BT-549 breast is above 100 µM; with DU-145 prostate it was above 100 µM; with KM12 colon, 39.1 µM; in the test with MALME-3M melanoma, 36.2 µM; with NCI-H23 lung it was 84.1 µM; in the test with NCI-H522 lung, 39.5 µM. In addition, the TGI in the test with OVCAR-4 ovarian is above 100 µM; in the test on SF-295 CNS, 31.5 µM; with UACC-257 melanoma, 46.7 µM.

On to `Cc1cc2c(cc1Cl)S/C(=C/C(=O)O)C(Nc1ccc3ncsc3c1)=NS2(=O)=O`, for which the GI50 in the test on BT-549 breast was 7.12 µM; in the test on DU-145 prostate, 21.2 µM; in the test with KM12 colon, 27.5 µM; with MALME-3M melanoma it was above 35.3 µM; with NCI-H23 lung it was above 14.3 µM; in the test with NCI-H522 lung it was 13 µM. In addition, the GI50 is above 34.3 µM in the test on OVCAR-4 ovarian, above 31.6 µM in the test with SF-295 CNS and above 27.2 µM in the test on UACC-257 melanoma. In addition, the TGI was 29 µM with BT-549 breast; above 97.3 µM with DU-145 prostate; above 48 µM in the test with KM12 colon; above 55.4 µM in the test with MALME-3M melanoma; above 22.5 µM in the test on NCI-H23 lung; above 67.6 µM in the test with NCI-H522 lung. Further, the TGI in the test on OVCAR-4 ovarian was above 54.5 µM; in the test with SF-295 CNS, above 48.1 µM; in the test with UACC-257 melanoma it was above 46 µM.

In the case of `CC(C)(C)C1CCC2c3c([nH]c4ccccc34)C3C(=O)N(c4ccc(Cl)cc4)C(=O)C3C2C1` (stereo not drawn), the TGI is above 100 µM in the test with BT-549 breast; above 100 µM with DU-145 prostate; 81.6 µM and > 10 µM in the test on HCC-2998 colon; above 100 µM with KM12 colon; above 10 µM with MALME-3M melanoma; above 100 µM with NCI-H23 lung. For the same compound, the TGI in the test with NCI-H522 lung, with OVCAR-4 ovarian and in the test with UACC-257 melanoma was above 100 µM throughout. Also, the GI50 in the test with DU-145 prostate is above 100 µM; in the test with HCC-2998 colon, 22.1 µM and > 10 µM; with KM12 colon, 44.3 µM and > 10 µM; in the test on NCI-H23 lung, 58.4 µM and > 10 µM; in the test with NCI-H522 lung it was 60.8 µM and > 10 µM; in the test with OVCAR-4 ovarian, 59.5 µM and > 10 µM. In addition, the GI50 in the test with UACC-257 melanoma is above 100 µM.

Regarding `CCOC(=O)c1cc2c(cc1Cl)SC(=Nc1ccccc1)N(S(=O)(=O)c1ccc(Cl)cc1)S2(=O)=O`, the GI50 in the test with BT-549 breast was 14.5 µM; in the test with DU-145 prostate, 17.3 µM; in the test on HCC-2998 colon, 13.5 µM; with KM12 colon, 15.1 µM; with NCI-H23 lung, 13.5 µM; in the test with NCI-H522 lung, 15.5 µM. The GI50 in the test on OVCAR-4 ovarian was 31.5 µM; in the test with SF-295 CNS, 19.5 µM; in the test on UACC-257 melanoma, 17.6 µM. Moreover, the TGI was 30.4 µM in the test with BT-549 breast; 31 µM in the test with DU-145 prostate; 27.9 µM in the test on HCC-2998 colon; 30.4 µM in the test on KM12 colon; 29.8 µM with NCI-H23 lung; 42.8 µM in the test on NCI-H522 lung. Moreover, the TGI in the test with OVCAR-4 ovarian was above 100 µM; in the test with SF-295 CNS it was 48.6 µM; in the test on UACC-257 melanoma, 40.3 µM.
